Columns and labels:
[1] = Blood clearance in Sprague-Dawley rat at 2.2 mg/kg, iv by LC-MS/MS analysis; format: ADME, organism-based; set-up: dose 2.2 mg/kg, route intravenous; conditions: whole blood
[2] = biological target: T1, Eukaryotic translation initiation factor 2-alpha kinase 3 (Homo sapiens, UniProt Q9NZJ5); assay: Inhibition of GST-tagged PERK cytoplasmic domain (536 to 1116) (unknown origin) assessed as biotinylated His6-tagged EIF2alpha phosphorylation preincubated for 30 mins followed by ATP and eIF2alpha addition measured after 1 hr by HTRF assay
T1 sequence (Q9NZJ5 whole entry): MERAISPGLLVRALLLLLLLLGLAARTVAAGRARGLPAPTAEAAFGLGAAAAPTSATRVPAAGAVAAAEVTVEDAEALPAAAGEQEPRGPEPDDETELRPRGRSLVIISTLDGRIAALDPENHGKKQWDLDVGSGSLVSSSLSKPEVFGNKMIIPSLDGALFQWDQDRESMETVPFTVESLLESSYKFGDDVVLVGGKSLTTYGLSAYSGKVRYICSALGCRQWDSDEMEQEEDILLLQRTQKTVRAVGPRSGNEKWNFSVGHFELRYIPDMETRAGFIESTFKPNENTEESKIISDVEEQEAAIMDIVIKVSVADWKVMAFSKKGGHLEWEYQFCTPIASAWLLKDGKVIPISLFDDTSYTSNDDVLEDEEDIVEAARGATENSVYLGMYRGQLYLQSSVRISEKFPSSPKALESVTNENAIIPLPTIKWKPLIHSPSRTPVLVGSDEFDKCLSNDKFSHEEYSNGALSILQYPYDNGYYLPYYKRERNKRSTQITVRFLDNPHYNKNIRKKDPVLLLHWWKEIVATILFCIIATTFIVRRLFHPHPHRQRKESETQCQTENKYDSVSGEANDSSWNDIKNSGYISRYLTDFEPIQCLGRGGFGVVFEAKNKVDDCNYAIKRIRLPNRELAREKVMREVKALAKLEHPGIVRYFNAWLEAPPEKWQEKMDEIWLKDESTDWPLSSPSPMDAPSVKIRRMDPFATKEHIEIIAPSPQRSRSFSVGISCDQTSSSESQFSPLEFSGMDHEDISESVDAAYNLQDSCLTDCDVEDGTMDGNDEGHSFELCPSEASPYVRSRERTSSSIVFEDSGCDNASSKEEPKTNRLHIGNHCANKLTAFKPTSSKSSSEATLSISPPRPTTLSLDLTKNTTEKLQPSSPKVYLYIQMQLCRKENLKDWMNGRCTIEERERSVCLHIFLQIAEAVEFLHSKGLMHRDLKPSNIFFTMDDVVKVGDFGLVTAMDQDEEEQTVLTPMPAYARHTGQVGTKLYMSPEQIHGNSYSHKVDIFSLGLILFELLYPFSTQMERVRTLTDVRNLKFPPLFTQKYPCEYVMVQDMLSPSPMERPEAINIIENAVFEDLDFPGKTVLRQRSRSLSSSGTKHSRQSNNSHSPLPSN

[3] = biological target: T1, Eukaryotic translation initiation factor 2-alpha kinase 3; assay: Inhibition of thapsigargin-induced autophosphorylation of PERK in human A549 cells preincubated for 1 hr followed by thapsigargin-induction measured after 1 hr by Western blotting analysis; format: cell-based
Cytochrome P450 3A4 [4] = biological target: T2, Cytochrome P450 3A4 (Homo sapiens, UniProt P08684); assay: Inhibition of CYP3A4 in human liver microsomes using nifedipine as substrate after 5 to 60 mins by LC-MS/MS analysis; format: ADME, Microsome
T2 sequence (P08684 whole entry): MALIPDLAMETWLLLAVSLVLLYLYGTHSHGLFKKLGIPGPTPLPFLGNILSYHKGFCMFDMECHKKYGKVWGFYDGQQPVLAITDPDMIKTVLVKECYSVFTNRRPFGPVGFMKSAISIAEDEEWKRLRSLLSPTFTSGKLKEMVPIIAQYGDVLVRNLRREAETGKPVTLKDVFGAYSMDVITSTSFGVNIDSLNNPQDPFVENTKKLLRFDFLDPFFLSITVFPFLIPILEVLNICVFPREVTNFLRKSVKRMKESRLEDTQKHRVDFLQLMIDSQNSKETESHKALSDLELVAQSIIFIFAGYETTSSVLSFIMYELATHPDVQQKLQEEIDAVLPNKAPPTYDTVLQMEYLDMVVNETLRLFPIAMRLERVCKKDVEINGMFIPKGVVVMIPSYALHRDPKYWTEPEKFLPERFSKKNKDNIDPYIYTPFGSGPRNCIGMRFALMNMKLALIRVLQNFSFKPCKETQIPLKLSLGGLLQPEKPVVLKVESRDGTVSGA

Cytochrome P450 2C9 = Cytochrome P450 2C9 (Homo sapiens, UniProt P11712); assay: Inhibition of CYP2C9 in human liver microsomes using diclofenac as substrate after 5 to 60 mins by LC-MS/MS analysis; format: ADME, Microsome
Chain of Cytochrome P450 2C9 (P11712 whole entry): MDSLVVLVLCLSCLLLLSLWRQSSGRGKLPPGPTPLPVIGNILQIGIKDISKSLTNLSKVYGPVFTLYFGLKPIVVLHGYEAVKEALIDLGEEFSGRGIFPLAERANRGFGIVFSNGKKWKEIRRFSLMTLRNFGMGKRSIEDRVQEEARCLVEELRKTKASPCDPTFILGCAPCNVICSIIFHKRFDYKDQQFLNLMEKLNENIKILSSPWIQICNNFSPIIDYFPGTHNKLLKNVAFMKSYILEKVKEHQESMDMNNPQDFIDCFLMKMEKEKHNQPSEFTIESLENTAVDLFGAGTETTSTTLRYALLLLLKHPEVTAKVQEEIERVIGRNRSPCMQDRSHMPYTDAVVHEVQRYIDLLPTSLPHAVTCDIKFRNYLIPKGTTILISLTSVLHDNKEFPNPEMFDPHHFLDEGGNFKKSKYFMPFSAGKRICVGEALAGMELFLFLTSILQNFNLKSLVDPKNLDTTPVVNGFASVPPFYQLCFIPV

[5] = biological target: Interferon-induced, double-stranded RNA-activated protein kinase (Homo sapiens, UniProt P19525); assay: Inhibition of PKR (unknown origin) assessed as EIF2AK2 phosphorylation
Chain of Interferon-induced, double-stranded RNA-activated protein kinase (P19525 whole entry): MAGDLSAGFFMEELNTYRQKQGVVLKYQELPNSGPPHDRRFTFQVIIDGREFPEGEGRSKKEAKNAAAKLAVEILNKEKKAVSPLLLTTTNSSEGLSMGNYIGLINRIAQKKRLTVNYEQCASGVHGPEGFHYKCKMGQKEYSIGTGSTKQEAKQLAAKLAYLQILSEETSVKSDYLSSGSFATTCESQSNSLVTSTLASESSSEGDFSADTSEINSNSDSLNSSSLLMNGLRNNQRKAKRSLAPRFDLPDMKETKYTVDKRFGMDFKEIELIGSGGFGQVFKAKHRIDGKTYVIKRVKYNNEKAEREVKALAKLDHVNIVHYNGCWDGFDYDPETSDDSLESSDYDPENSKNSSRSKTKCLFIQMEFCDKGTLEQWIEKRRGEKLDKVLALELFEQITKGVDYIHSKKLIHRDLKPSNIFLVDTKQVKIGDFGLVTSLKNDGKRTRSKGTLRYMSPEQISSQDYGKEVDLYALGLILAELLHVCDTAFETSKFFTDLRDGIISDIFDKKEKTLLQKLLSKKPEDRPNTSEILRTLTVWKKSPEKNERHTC

eIF-2-alpha kinase GCN2 = eIF-2-alpha kinase GCN2 (Homo sapiens, UniProt Q9P2K8); assay: Inhibition of GCN2 (unknown origin) assessed as EIF2AK4 phosphorylation
Chain of eIF-2-alpha kinase GCN2 (Q9P2K8 whole entry): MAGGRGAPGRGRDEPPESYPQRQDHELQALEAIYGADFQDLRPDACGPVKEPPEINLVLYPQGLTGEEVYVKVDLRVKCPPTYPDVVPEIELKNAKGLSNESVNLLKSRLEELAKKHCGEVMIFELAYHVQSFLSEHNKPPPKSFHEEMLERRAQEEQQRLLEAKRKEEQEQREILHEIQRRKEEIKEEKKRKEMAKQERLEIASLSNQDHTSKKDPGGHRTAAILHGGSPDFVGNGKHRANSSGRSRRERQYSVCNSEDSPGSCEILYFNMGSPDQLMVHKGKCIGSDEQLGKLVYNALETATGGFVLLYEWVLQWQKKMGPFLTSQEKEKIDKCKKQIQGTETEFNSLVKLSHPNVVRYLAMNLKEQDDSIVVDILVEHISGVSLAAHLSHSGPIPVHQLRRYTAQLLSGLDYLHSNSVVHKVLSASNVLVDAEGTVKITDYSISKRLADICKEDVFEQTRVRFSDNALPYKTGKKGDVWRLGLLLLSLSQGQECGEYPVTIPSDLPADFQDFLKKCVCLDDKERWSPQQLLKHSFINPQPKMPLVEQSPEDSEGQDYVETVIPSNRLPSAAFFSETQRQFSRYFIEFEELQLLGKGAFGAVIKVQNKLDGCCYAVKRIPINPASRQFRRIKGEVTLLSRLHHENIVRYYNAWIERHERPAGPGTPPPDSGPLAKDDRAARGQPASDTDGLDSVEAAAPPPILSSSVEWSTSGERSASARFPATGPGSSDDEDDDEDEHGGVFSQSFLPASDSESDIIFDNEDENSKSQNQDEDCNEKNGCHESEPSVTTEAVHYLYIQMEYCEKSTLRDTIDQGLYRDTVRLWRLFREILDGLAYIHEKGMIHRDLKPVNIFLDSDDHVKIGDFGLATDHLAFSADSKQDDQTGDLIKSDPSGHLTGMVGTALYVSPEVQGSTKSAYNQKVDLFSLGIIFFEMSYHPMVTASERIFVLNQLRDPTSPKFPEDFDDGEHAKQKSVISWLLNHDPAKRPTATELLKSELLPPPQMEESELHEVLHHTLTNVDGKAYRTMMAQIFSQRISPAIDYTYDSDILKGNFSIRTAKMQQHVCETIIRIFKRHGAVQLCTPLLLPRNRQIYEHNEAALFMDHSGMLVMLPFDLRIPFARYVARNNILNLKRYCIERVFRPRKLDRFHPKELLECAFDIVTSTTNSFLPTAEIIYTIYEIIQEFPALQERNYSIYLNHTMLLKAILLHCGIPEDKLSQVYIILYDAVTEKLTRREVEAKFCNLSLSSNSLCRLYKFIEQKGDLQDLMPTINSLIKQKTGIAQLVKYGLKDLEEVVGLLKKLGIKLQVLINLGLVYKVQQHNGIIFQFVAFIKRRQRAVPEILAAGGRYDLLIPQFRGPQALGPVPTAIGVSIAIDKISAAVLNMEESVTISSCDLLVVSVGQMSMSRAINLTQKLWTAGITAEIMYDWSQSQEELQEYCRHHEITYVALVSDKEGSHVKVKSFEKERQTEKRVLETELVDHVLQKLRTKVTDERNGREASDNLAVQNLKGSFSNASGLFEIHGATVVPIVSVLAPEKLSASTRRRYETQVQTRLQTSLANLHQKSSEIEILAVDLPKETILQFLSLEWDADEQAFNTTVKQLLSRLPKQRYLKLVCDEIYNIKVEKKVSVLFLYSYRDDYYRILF

Cytochrome P450 2D6 = Cytochrome P450 2D6 (Homo sapiens, UniProt P10635); assay: Inhibition of CYP2D6 in human liver microsomes using bufuralol as substrate after 5 to 60 mins by LC-MS/MS analysis; format: ADME, Microsome
Chain of Cytochrome P450 2D6 (P10635 whole entry): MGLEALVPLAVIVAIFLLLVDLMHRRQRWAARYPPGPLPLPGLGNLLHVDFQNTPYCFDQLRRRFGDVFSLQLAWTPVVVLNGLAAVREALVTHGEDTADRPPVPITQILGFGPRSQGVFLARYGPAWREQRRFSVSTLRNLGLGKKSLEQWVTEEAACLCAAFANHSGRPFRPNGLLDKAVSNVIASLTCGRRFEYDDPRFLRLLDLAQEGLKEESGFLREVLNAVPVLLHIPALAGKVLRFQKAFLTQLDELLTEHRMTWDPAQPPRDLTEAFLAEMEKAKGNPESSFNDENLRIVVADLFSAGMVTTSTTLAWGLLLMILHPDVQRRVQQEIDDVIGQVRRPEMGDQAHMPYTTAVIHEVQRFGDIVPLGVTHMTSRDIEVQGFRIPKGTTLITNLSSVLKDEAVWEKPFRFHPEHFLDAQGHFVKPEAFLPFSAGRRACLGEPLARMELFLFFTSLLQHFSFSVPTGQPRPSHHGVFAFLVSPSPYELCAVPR

[6] = biological target: Eukaryotic translation initiation factor 2-alpha kinase 1 (Homo sapiens, UniProt Q9BQI3); assay: Inhibition of HRI (unknown origin) assessed as EIF2AK1 phosphorylation
Chain of Eukaryotic translation initiation factor 2-alpha kinase 1 (Q9BQI3 whole entry): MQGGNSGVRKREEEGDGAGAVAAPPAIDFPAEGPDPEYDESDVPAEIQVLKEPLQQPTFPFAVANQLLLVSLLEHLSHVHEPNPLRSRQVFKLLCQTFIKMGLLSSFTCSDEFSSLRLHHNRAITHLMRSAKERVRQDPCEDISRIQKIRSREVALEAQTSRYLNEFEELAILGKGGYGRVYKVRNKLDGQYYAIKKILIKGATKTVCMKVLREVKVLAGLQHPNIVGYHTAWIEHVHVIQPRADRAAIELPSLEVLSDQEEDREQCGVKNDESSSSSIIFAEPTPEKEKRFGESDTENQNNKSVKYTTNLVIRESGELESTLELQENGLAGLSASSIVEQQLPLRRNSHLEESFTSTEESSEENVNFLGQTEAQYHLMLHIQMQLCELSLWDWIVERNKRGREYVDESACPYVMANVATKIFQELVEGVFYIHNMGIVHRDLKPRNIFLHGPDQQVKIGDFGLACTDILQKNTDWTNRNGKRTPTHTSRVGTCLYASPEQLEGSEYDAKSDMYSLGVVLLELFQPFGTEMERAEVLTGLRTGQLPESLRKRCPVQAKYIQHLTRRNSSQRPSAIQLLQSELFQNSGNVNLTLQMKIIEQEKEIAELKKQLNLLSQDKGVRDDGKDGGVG

Cytochrome P450 2C19 = Cytochrome P450 2C19 (Homo sapiens, UniProt P33261); assay: Inhibition of CYP2C19 in human liver microsomes using mephenytoin as substrate after 5 to 60 mins by LC-MS/MS analysis; format: ADME, Microsome
Chain of Cytochrome P450 2C19 (P33261 whole entry): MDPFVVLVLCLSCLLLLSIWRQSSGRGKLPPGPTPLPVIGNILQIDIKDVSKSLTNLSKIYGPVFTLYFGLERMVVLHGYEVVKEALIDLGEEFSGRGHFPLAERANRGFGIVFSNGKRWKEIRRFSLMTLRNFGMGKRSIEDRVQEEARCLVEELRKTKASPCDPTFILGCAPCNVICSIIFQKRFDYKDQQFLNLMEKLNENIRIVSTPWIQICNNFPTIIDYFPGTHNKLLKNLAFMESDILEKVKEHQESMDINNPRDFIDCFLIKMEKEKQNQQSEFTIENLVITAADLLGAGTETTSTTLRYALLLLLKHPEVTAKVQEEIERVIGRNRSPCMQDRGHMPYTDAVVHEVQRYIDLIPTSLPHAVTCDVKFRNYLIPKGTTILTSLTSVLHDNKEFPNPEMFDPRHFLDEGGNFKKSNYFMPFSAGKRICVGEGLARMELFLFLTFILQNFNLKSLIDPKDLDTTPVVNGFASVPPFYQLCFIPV

Cytochrome P450 1A2 = biological target: T3, Cytochrome P450 1A2 (Homo sapiens, UniProt P05177); assay: Inhibition of CYP1A2 in human liver microsomes using phenacetin as substrate after 5 to 60 mins by LC-MS/MS analysis; format: ADME, Microsome
T3 sequence (P05177 whole entry): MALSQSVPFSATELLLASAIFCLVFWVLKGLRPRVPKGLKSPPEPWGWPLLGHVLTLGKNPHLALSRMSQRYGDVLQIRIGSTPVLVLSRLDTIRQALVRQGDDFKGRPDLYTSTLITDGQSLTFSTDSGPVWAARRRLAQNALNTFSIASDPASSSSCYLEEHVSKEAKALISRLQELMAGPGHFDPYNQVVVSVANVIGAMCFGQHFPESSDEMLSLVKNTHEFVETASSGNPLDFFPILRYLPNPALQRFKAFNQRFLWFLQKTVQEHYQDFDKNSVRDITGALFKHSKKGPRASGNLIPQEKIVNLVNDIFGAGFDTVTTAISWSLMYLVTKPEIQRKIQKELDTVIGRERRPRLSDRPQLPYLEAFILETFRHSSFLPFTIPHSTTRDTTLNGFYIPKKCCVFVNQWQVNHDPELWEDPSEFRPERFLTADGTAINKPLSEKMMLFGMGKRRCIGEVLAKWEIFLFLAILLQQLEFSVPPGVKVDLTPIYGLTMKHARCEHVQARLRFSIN

Cytochrome P450 3A4 [7] = biological target: T2, Cytochrome P450 3A4; assay: Inhibition of CYP3A4 in human liver microsomes using midazolam as substrate after 5 to 60 mins by LC-MS/MS analysis; format: ADME, Microsome
Cytochrome P450 2C8 = biological target: T4, Cytochrome P450 2C8 (Homo sapiens, UniProt P10632); assay: Inhibition of CYP2C8 in human liver microsomes using paclitaxel as substrate after 5 to 60 mins by LC-MS/MS analysis; format: ADME, Microsome
T4 sequence (P10632 whole entry): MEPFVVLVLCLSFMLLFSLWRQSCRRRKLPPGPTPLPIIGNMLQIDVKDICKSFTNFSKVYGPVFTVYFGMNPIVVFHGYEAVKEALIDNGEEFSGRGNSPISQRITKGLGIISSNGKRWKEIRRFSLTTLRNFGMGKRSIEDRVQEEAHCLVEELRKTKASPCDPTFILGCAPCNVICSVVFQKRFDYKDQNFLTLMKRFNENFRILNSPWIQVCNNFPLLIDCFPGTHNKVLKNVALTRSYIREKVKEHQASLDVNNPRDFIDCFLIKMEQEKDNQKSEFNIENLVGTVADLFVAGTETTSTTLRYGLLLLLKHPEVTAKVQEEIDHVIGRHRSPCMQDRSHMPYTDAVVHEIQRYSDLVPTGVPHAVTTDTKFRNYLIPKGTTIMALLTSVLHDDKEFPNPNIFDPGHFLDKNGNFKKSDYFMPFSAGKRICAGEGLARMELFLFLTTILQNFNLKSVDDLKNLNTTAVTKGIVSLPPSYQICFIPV

SMILES | clearance [1] [mL/min/kg] | IC50 [2] [nM] | IC50 [3] [nM] | IC50 (Cytochrome P450 3A4 [4]) [nM] | IC50 (Cytochrome P450 2C9) [nM] | IC50 [5] [nM] | IC50 (eIF-2-alpha kinase GCN2) [nM] | IC50 (Cytochrome P450 2D6) [nM] | IC50 [6] [nM] | IC50 (Cytochrome P450 2C19) [nM] | IC50 (Cytochrome P450 1A2) [nM] | IC50 (Cytochrome P450 3A4 [7]) [nM] | IC50 (Cytochrome P450 2C8) [nM]
Cn1cc(-c2ccc3c(c2)CCN3C(=O)Cc2cccc(C(F)(F)F)n2)c2c(N)ncnc21 | 12.8 | 0.5 | 30 | – | – | – | – | – | – | – | – | – | –
Cn1cc(-c2ccc3c(c2F)CCN3C(=O)Cc2cccc(C(F)(F)F)n2)c2c(N)ncnc21 | 8.9 | 0.5 | < 30 | 7400 | 19200 | 359 | 776 | 23700 | 37 | > 25000 | > 25000 | 9090 | 5830
Cc1cc(C)n(CC(=O)N2CCc3c2ccc(-c2cn(C)c4ncnc(N)c24)c3F)n1 | 1.9 | 2.7 | 30 | 20500 | > 25000 | 99 | – | > 25000 | 61 | > 25000 | > 25000 | > 25000 | > 25000

The next lines start with the values.

clearance [1] [mL/min/kg] | IC50 [2] [nM] | IC50 [3] [nM] | IC50 (Cytochrome P450 3A4 [4]) [nM] | IC50 (Cytochrome P450 2C9) [nM] | IC50 [5] [nM] | IC50 (eIF-2-alpha kinase GCN2) [nM] | IC50 (Cytochrome P450 2D6) [nM] | IC50 [6] [nM] | IC50 (Cytochrome P450 2C19) [nM] | IC50 (Cytochrome P450 1A2) [nM] | IC50 (Cytochrome P450 3A4 [7]) [nM] | IC50 (Cytochrome P450 2C8) [nM] | SMILES
– | 57.5 | – | – | – | – | – | – | – | – | – | – | – | Cc1ccn(CC(=O)N2CCc3cc(-c4cn(C)c5ncnc(N)c45)ccc32)n1
– | 16.6 | – | – | – | – | – | – | – | – | – | – | – | Cc1ccnn1CC(=O)N1CCc2cc(-c3cn(C)c4ncnc(N)c34)ccc21
2.8 | 1.9 | 100 | – | – | – | – | – | – | – | – | – | – | Cc1cc(C)n(CC(=O)N2CCc3cc(-c4cn(C)c5ncnc(N)c45)ccc32)n1

— ChEMBL document CHEMBL2440009, “Discovery of GSK2656157: An Optimized PERK Inhibitor Selected for Preclinical Development” (ACS Med Chem Lett, 2013)
